Data: publication PMC9503459, “Antifungal Activity, Structural Stability, and Immunomodulatory Effects on Human Immune Cells of Defensin from the Lentil Lens culinaris” (Membranes, 2022)
No end group written: not given here.

Tests used:
[1] = system: pepsin, trypsin, α-chymotrypsin; test: Simulated gastrointestinal digestion in vitro; type: in vitro ADME, porcine pepsin and trypsin, bovine α-chymotrypsin
Description: Digestive enzymes (porcine pepsin and trypsin, bovine α-chymotrypsin), model protein substrate bovine α-casein, and secondary anti-rabbit IgG polyclonal goat antibodies conjugated to HRP and 3,3′,5,5′-tetramethylbenzidine (TMB) substrates were purchased from Sigma-Aldrich (St. Louis, MO, USA). Synthetic lysophospholipids (lyso-palmitoyl phosphatidylcholine (LPPC), lyso-palmitoyl phosphatidylglycerol (LPPG)) were purchased from Avanti Polar Lipids (Alabaster, AL, USA).
Sensitivity of Lc-def to digestive enzymes was examined by simulation of its gastrointestinal digestion in vitro. Gastric digestion was performed for 2 h, using 50 ng of pepsin per 1 μg of preheated at 100 °C for 30 min and intact Lc-def in 0.1 M HCl, pH 2.0. For duodenal digestion, the pH of the mixture resulting from gastric digestion was adjusted to 8.0 by addition of ammonium bicarbonate. The obtained mixture was incubated for 24 h at 37 °C with 2.5 ng of trypsin and 10 ng of α-chymotrypsin per 1 μg of the defensin. The degree of proteolysis was monitored by SDS-PAGE and RP-HPLC. Gel analysis was performed using Gel Doc XR^+ imaging system (Bio-Rad, Hercules, CA, USA) and Image Lab Software v.6.1.0 (Bio-Rad, Hercules, CA, USA). Some independent experiments were performed in each case. The experiment with α-casein was carried out for comparison.

CD4+ T-helper cells = test: Cytokine response by multiplex xMAP, CD4+ T-helper cells; type: cell-based, human; settings: 2 µM, 24 h
Method: Colorectal adenocarcinoma Caco-2 cell line (ATCC HTB-37) was cultured in complete DMEM/F12 (1:1) medium containing 10% fetal bovine serum (FBS, Gibco) and 1X antibiotic-antimycotic solution (1XAAS, Invitrogen, Waltham, MA, USA). The acute monocytic leukemia THP-1 line (ATCC TIB-202) was cultured in complete RPMI-1640 medium, containing 10% FBS, 1XAAS, and […]. THP-1 cells were differentiated into pro-inflammatory macrophages (Mφ1) with phorbol 12-myristate 13-acetate (Sigma-Aldrich) for 24 h and subsequently polarized with lipopolysaccharide from E. coli (Sigma-Aldrich) and rhIFN-γ (Sigma-Aldrich) for another 48 h according to previously reported protocol. All cells were cultured in a humidified CO2 incubator (5% CO2, 37 °C). Primary peripheral blood mononuclear cells (PBMCs) collected from a healthy donor were purchased from American Type Culture Collection (ATCC PCS-800-011). CD4^+ T-helper and CD8^+ T cytotoxic cells were isolated from PBMCs by magnetic separation with mouse anti-human CD4-PE (clone 13B8.2, Beckman Coulter Diagnostics, Pasadena, CA, USA) and CD8-PE (clone REA734, Miltenyi Biotec, Bergisch Gladbach, Germany), Anti-PE MicroBeads (Miltenyi Biotec), and LS Separation Columns (Miltenyi Biotec). Isolated CD4^+ and CD8^+ cells were expanded separately with Dynabeads™ Human T-Expander CD3/CD28 (Gibco, Waltham, MA, USA) in RPMI-1640 supplemented with 10% FBS, 1XAAS and 100 U/mL rh-IL-2 (Gibco). Regulatory CD4^+ FoxP3^+ T cells (Tregs) were isolated from PBMCs by magnetic separation with CD4^+CD25^+ Regulatory T Cell Isolation Kit, human (Miltenyi Biotec). Primary CD14^+ blood monocytes were isolated from PBMCs by adherence according to standard technique. Monocyte-derived mature dendritic cells (moDCs) were obtained from CD14^+ blood monocytes according to the previously reported protocol. Briefly, blood monocytes were incubated in complete RPMI-1640 medium, containing 10% FBS, 1XAAS, 800 U/mL rhGM-CSF (Sci-Store, Russia, Moscow) and 500 U/mL rhIL-4 (Sci-Store) for 3 days. Fresh complete RPMI-1640 medium with rhGM-CSF and rhIL-4 was added to the culture on day 3. On day 5, fresh complete RPMI-1640 containing 100 U/mL rhTNF-α (Sigma) as well as 800 U/mL rhGM-CSF and 500 U/mL rhIL-4 was added and the culture was incubated for another 4 days until full maturation.
Caco-2 cells were seeded into the wells of a 48-well plate, coated with 0.1% bovine collagen (Sigma-Aldrich) for 24 h, 3 weeks before the experiment with complete DMEM/F12 (1:1) medium renewal every 2–3 days. Monocytes, moDCs, CD4^+ T-helper and CD8^+ T cytotoxic cells, Mφ1, and Regulatory CD4^+ FoxP3^+ T cells were seeded into the wells of 48-well plates in the complete RPMI-1640 medium supplemented with 10% Human AB serum (HABS, Capricorn Scientific, Ebsdorfergrund, Germany) and 1XAAS 24 h prior to the experiment; medium in Caco-2-containing wells was also replaced with the same medium. After 24 h, half of the medium in each well was replaced by fresh complete RPMI-1640 medium with 10% HABS, supplemented with 4 µM of Lc-def for the sample wells or fresh medium alone for the control wells. Cell cultures were kept in CO2-incubator (5% CO2, 37 °C) for another 24 h. Culture supernatants were collected 24 h later and stored at −70 °C degrees less than one month prior to the analytes assessment. […]

Lc-def: defensin from lentil Lens culinaris seeds (UniProt:B3F051), recombinant, overexpressed in Escherichia coli (KTCENLSDSFKGPCIPDGNCNKHCKEKEHLLSGRCRDDFRCWCTRNC; disulfide (positions not given here); ends not checked; also: disulfide bonds present, pairing not given here; UniProt B3F051 28-74, looked up)
degradation after gastrointestinal digestion [1]: approximately 30%
EGF (CD4+ T-helper cells): <1.95↓ pg/ml
Eotaxin (CD4+ T-helper cells): <3.23↓ pg/ml
FGF-2 (CD4+ T-helper cells): 0 pg/mL
FLT-3L (CD4+ T-helper cells): <0.45↓ pg/ml
Fractalkine (CD4+ T-helper cells): <23.19↓ pg/ml
G-CSF (CD4+ T-helper cells): <2.57↓ pg/ml
GM-CSF (CD4+ T-helper cells): <1.36↓ pg/ml
GROa (CD4+ T-helper cells): <0.67↓ pg/ml
IFNa2 (CD4+ T-helper cells): <4.43↓ pg/ml
IFNg (CD4+ T-helper cells): <1.99↓ pg/ml
IL-1RA (CD4+ T-helper cells): <0.83↓ pg/ml
IL-1a (CD4+ T-helper cells): 8.24 pg/mL
IL-1b (CD4+ T-helper cells): <18.72↓ pg/ml
IL-2 (CD4+ T-helper cells): <0.31↓ pg/ml
IL-3 (CD4+ T-helper cells): <0.48↓ pg/ml
IL-4 (CD4+ T-helper cells): <0.31↓ pg/ml
IL-5 (CD4+ T-helper cells): 0.97 pg/mL
IL-6 (CD4+ T-helper cells): <0.30↓ pg/ml
IL-7 (CD4+ T-helper cells): <0.33↓ pg/ml
IL-8 (CD4+ T-helper cells): <0.49↓ pg/ml
IL-9 (CD4+ T-helper cells): <1.05↓ pg/ml
IL-10 (CD4+ T-helper cells): <0.68↓ pg/ml
IL-12 (p40) (CD4+ T-helper cells): <3.02↓ pg/ml
IL-12 (p70) (CD4+ T-helper cells): <1.48↓ pg/ml
IL-13 (CD4+ T-helper cells): <5.00↓ pg/ml
IL-15 (CD4+ T-helper cells): <1.45↓ pg/ml
IL-17A (CD4+ T-helper cells): <1.55↓ pg/ml
IL-17E/IL-25 (CD4+ T-helper cells): <20.59↓ pg/ml
IL-17F (CD4+ T-helper cells): <16.96↓ pg/ml
IL-18 (CD4+ T-helper cells): <0.35↓ pg/ml
IL-22 (CD4+ T-helper cells): <8.31↓ pg/ml
IL-27 (CD4+ T-helper cells): <8.55↓ pg/ml
IP-10 (CD4+ T-helper cells): <1.56↓ pg/ml
M-GSF (CD4+ T-helper cells): <23.75↓ pg/ml
MCP-1 (CD4+ T-helper cells): <1.52↓ pg/ml
MCP-3 (CD4+ T-helper cells): <3.95↓ pg/ml
MDC (CD4+ T-helper cells): <0.35↓ pg/ml
MIG (CD4+ T-helper cells): <3.43↓ pg/ml
MIP-1a (CD4+ T-helper cells): 7.47 pg/mL
MIP-1b (CD4+ T-helper cells): 3.99 pg/mL
PDGF-AA (CD4+ T-helper cells): <7.38↓ pg/ml
PDGF-AB/BB (CD4+ T-helper cells): <9.75↓ pg/ml
RANTES (CD4+ T-helper cells): 236.88 pg/mL
TGF-a (CD4+ T-helper cells): <0.66↓ pg/ml
TNFa (CD4+ T-helper cells): <3.91↓ pg/ml
TNFb (CD4+ T-helper cells): <0.73↓ pg/ml
VEGFa (CD4+ T-helper cells): <1.27↓ pg/ml
effects on cytokine production (CD4+ T-helper cells): No effects
sCD40L (CD4+ T-helper cells): <6.66↓ pg/ml
